Where two headings read alike, the source gives them in different places.
What was measured:
HCV replicon genotype 1a = assay: microbe, parasite or virus in culture; assay type: cell-based, hepatitis C virus (HCV)
HCV replicon genotype 1b = assay: microbe, parasite or virus in culture; assay type: cell-based, hepatitis C virus (HCV)
[1] = Hepatitis C virus, 96 h, read-out: 1a IC50 (nM)
[2] = Hepatitis C virus, 96 h, read-out: 1b IC50 (nM)

Structure (SMILES) | IC50 (HCV replicon genotype 1a; [1]) | IC50 (HCV replicon genotype 1b; [2]) | IC50 (HCV replicon genotype 1a; read-out: 1a IC50) | IC50 (HCV replicon genotype 1b; read-out: 1b IC50)
CNC(=O)c1c(-c2ccc(F)cc2)oc2cc(N(C)S(C)(=O)=O)c(-c3cc4c(=O)n(Cc5ccc(F)cc5)nnc4cc3Cl)cc12 [Compound 73, 5-[7-chloro-3-(4-fluorobenzyl)-4-oxo-3,4-dihydro-1,2,3-benzotriazin-6-yl]-2-(4-fluorophenyl)-N-methyl-6-[methyl(methylsulfonyl)amino]-1-benzofuran-3-carboxamide] | 11.6 nM | 7.65 nM | – | –
CNC(=O)c1c(-c2ccc(F)cc2)oc2cc(N(C)S(C)(=O)=O)c(-c3cnc4ncn([C@H](C)c5ccc(F)cc5)c(=O)c4c3)cc12 [Compound 25] | 16.3 nM | 11.9 nM | – | –
CNC(=O)c1c(-c2ccc(F)cc2)oc2cc(N(C)S(C)(=O)=O)c(-c3ccc4c(n3)C(=O)N(c3ccc(F)cc3)CO4)cc12 [Compound 2] | 24.8 nM | 3.34 nM | – | –
CNC(=O)c1c(-c2ccc(F)cc2)oc2cc(N(C)S(C)(=O)=O)c(-c3ccc4nnn([C@H](COC)c5ccc(F)cc5)c(=O)c4c3)cc12 [Compound 39, (S)-2-(4-fluorophenyl)-5-(3-(1-(4-fluorophenyl)-2-methoxyethyl)-4-oxo-3,4-dihydrobenzo[d][1,2,3]triazin-6-yl)-N-methyl-6-(N-methylmethylsulfonamido)benzofuran-3-carboxamide] | 4.04 nM | 9.27 nM | – | –
CNC(=O)c1c(-c2ccc(F)cc2)oc2cc(N(C)S(C)(=O)=O)c(-c3cnc4ncn(Cc5ccc(F)cc5)c(=O)c4c3)cc12 [Compound 24] | 2.59 nM | 2.57 nM | – | –
CNC(=O)c1c(-c2ccc(F)cc2)oc2cc(N(C)S(C)(=O)=O)c(-c3ccc4nc(C)n([C@H](COC)c5ccc(F)cc5)c(=O)c4n3)cc12 [Compound 67, (S)-2-(4-fluorophenyl)-5-(3-(1-(4-fluorophenyl)-2-methoxyethyl)-2-methyl-4-oxo-3,4-dihydropyrido[3,2-d]pyrimidin-6-yl)-N-methyl-6-(N-methylmethylsulfonamido)benzofuran-3-carboxamide] | 4.97 nM | 3.77 nM | – | –
CNC(=O)c1c(-c2ccc(F)cc2)oc2cc(N(C)S(C)(=O)=O)c(-c3ccc4c(n3)C(=O)N(Cc3ccc(F)cc3)CC4)cc12 [Compound 36, 5-(7-(4-fluorobenzyl)-8-oxo-5,6,7,8-tetrahydro-1,7-naphthyridin-2-yl)-2-(4-fluorophenyl)-N-methyl-6-(N-methylmethylsulfonamido)benzofuran-3-carboxamide] | 1.08 nM | 0.527 nM | – | –
CNC(=O)c1c(-c2ccc(F)cc2)oc2cc(N(C)S(C)(=O)=O)c(-c3cc(C)c4nnn(Cc5ccc(F)cc5)c(=O)c4c3)cc12 [Compound 74, 5-[3-(4-fluorobenzyl)-8-methyl-4-oxo-3,4-dihydro-1,2,3-benzotriazin-6-yl]-2-(4-fluorophenyl)-N-methyl-6-[methyl(methylsulfonyl)amino]-1-benzofuran-3-carboxamide] | 11.9 nM | 7.08 nM | – | –
CNC(=O)c1c(-c2ccc(F)cc2)oc2cc(N(C)S(C)(=O)=O)c(-c3ccc4nc(C)n([C@H](CCO)c5ccc(F)cc5)c(=O)c4n3)cc12 [Compound 66, (R)-2-(4-fluorophenyl)-5-(3-(1-(4-fluorophenyl)-3-hydroxypropyl)-2-methyl-4-oxo-3,4-dihydropyrido[3,2-d]pyrimidin-6-yl)-N-methyl-6-(N-methylmethylsulfonamido)benzofuran-3-carboxamide] | 7.29 nM | 4.06 nM | – | –
CNC(=O)c1c(-c2ccc(F)cc2)oc2cc(N(C)S(C)(=O)=O)c(-c3cnc4c(c3)C(=O)NC(C3CC3)N4)cc12 (stereo not drawn) [Compound 16] | 128 nM | 39.2 nM | – | –
CNC(=O)c1c(-c2ccc(F)cc2)oc2ccc(-c3ccc4c(n3)C(=O)N(C(C)(C)c3ccc(F)cc3)CO4)cc12 [Compound 33, 2-(4-fluorophenyl)-5-(3-(2-(4-fluorophenyl)propan-2-yl)-4-oxo-3,4-dihydro-2H-pyrido[2,3-e][1,3]oxazin-6-yl)-N-methylbenzofuran-3-carboxamide] | 708 nM | 1690 nM | – | –
CNC(=O)c1c(-c2ccc(F)cc2)oc2cc(N(C)S(C)(=O)=O)c(-c3ccc4nc(C)n([C@H](C)c5ccc(F)cc5)c(=O)c4c3)cc12 [Compound 57, (R)-2-(4-fluorophenyl)-5-(3-(1-(4-fluorophenyl)ethyl)-2-methyl-4-oxo-3,4-dihydroquinazolin-6-yl)-N-methyl-6-(N-methylmethylsulfonamido)benzofuran-3-carboxamide] | 9.65 nM | 9.82 nM | – | –
CNC(=O)c1c(-c2ccc(F)cc2)oc2cc(N(C)S(C)(=O)=O)c(-c3cc4c(=O)n(Cc5ccc(F)cc5)nnc4cc3F)cc12 [Compound 70, 5-(7-fluoro-3-(4-fluorobenzyl)-4-oxo-3,4-dihydrobenzo[d][1,2,3]triazin-6-yl)-2-(4-fluorophenyl)-N-methyl-6-(N-methylmethylsulfonamido)benzofuran-3-carboxamide] | 11.3 nM | 2.61 nM | – | –
CNC(=O)c1c(-c2ccc(F)cc2)oc2cc(N(C)S(C)(=O)=O)c(-c3ccc4c(n3)C(=O)N(Cc3ccc(OC)cc3)CO4)cc12 [Compound 5] | 3.06 nM | 1.59 nM | – | –
CNC(=O)c1c(-c2ccc(F)cc2)oc2cc(N(C)S(C)(=O)=O)c(-c3cnc4ncn(-c5ccc(F)cc5)c(=O)c4c3)cc12 [Compound 22] | 16.2 nM | 4.12 nM | – | –
CNC(=O)c1c(-c2ccc(F)cc2)oc2cc(N(C)S(C)(=O)=O)c(-c3ccc4nnn([C@@H](COC)c5ccc(F)cc5)c(=O)c4c3)cc12 [Compound 41, 2-(4-fluorophenyl)-5-{3-[(1R)-1-(4-fluorophenyl)-2-methoxyethyl]-4-oxo-3,4-dihydro-1,2,3-benzotriazin-6-yl}-N-methyl-6-[methyl(methylsulfonyl)amino]-1-benzofuran-3-carboxamide] | 18.1 nM | 16.2 nM | – | –
CNC(=O)c1c(-c2ccc(F)cc2)oc2cc(N(C)S(C)(=O)=O)c(-c3ccc4nnn([C@@H](C)c5ccc(F)cc5)c(=O)c4c3)cc12 [Compound 45, 2-(4-fluorophenyl)-5-{3-[(1S)-1-(4-fluorophenyl)ethyl]-4-oxo-3,4-dihydro-1,2,3-benzotriazin-6-yl}-N-methyl-6-[methyl(methylsulfonyl)amino]-1-benzofuran-3-carboxamide] | 35 nM | 17.5 nM | – | –
CNC(=O)c1c(-c2ccc(F)cc2)oc2cc(N(C)S(C)(=O)=O)c(-c3ccc4nnn(C(CO)c5ccccc5)c(=O)c4c3)cc12 (stereo not drawn) [Compound 43, 2-(4-fluorophenyl)-5-[3-(2-hydroxy-1-phenylethyl)-4-oxo-3,4-dihydro-1,2,3-benzotriazin-6-yl]-N-methyl-6-[methyl(methylsulfonyl)amino]-1-benzofuran-3-carboxamide] | 15.1 nM | 9.66 nM | – | –
CNC(=O)c1c(-c2ccc(F)cc2)oc2cc(N(C)S(C)(=O)=O)c(-c3ccc4c(n3)C(=O)N([C@@H](C)c3ccc(F)cc3)CO4)cc12 [Compound 31, (S)-2-(4-fluorophenyl)-5-(3-(1-(4-fluorophenyl)ethyl)-4-oxo-3,4-dihydro-2H-pyrido[2,3-e][1,3]oxazin-6-yl)-N-methyl-6-(N-methylmethylsulfonamido)benzofuran-3-carboxamide] | – | – | 41.8 nM | 12.5 nM
CNC(=O)c1c(-c2ccc(F)cc2)oc2cc(N(C)S(C)(=O)=O)c(-c3ccc4nnn(Cc5ccc(F)cc5)c(=O)c4c3)cc12 [Compound 44, 5-[3-(4-fluorobenzyl)-4-oxo-3,4-dihydro-1,2,3-benzotriazin-6-yl]-2-(4-fluorophenyl)-N-methyl-6-[methyl(methylsulfonyl)amino]-1-benzofuran-3-carboxamide] | 5.62 nM | 10.5 nM | – | –
CNC(=O)c1c(-c2ccc(F)cc2)oc2ccc(-c3ccc4c(n3)C(=O)N(Cc3ccc(F)cc3)CC4)cc12 [Compound 37, 5-(7-(4-fluorobenzyl)-8-oxo-5,6,7,8-tetrahydro-1,7-naphthyridin-2-yl)-2-(4-fluorophenyl)-N-methylbenzofuran-3-carboxamide] | 77.3 nM | 11.4 nM | – | –
CNC(=O)c1c(-c2ccc(F)cc2)oc2cc(N(C)S(C)(=O)=O)c(-c3ccc4ncn(Cc5ccc(F)cn5)c(=O)c4c3)cc12 [Compound 52, 2-(4-fluorophenyl)-5-{3-[(5-fluoropyridin-2-yl)methyl]-4-oxo-3,4-dihydroquinazolin-6-yl}-N-methyl-6-[methyl(methylsulfonyl)amino]-1-benzofuran-3-carboxamide] | 6.37 nM | 2.11 nM | – | –
CNC(=O)c1c(-c2ccc(F)cc2)oc2cc(N(C)S(C)(=O)=O)c(-c3ccc4c(n3)C(=O)N(Cc3ccccc3F)CO4)cc12 [Compound 8] | 5.87 nM | 2.62 nM | – | –
CNC(=O)c1c(-c2ccc(F)cc2)oc2cc(N(C)S(C)(=O)=O)c(-c3ccc4ncn(Cc5ccc(F)cc5OC)c(=O)c4c3)cc12 [Compound 51, 5-[3-(4-fluoro-2-methoxybenzyl)-4-oxo-3,4-dihydroquinazolin-6-yl]-2-(4-fluorophenyl)-N-methyl-6-[methyl(methylsulfonyl)amino]-1-benzofuran-3-carboxamide] | 8.98 nM | 2.35 nM | – | –
CNC(=O)c1c(-c2ccc(F)cc2)oc2cc(N(C)S(C)(=O)=O)c(-c3ccc4c(n3)C(=O)N(Cc3cccc(F)c3)CO4)cc12 [Compound 7] | 1.48 nM | 1.06 nM | – | –
CNC(=O)c1c(-c2ccc(F)cc2)oc2ccc(-c3ccc4c(n3)C(=O)N(Cc3ccc(F)cc3)CO4)cc12 [Compound 34, 5-(3-(4-fluorobenzyl)-4-oxo-3,4-dihydro-2H-pyrido[2,3-e][1,3]oxazin-6-yl)-2-(4-fluorophenyl)-N-methylbenzofuran-3-carboxamide] | 8930 nM | 10400 nM | – | –
CNC(=O)c1c(-c2ccc(F)cc2)oc2cc(N(C)S(C)(=O)=O)c(-c3ccc4nnn(Cc5ccc(F)cc5OC)c(=O)c4c3)cc12 [Compound 47, 5-[3-(4-fluoro-2-methoxybenzyl)-4-oxo-3,4-dihydro-1,2,3-benzotriazin-6-yl]-2-(4-fluorophenyl)-N-methyl-6-[methyl(methylsulfonyl)amino]-1-benzofuran-3-carboxamide] | 20.2 nM | 20.6 nM | – | –

Reference: patent US9364482B2, “Substituted benzofuran compounds and methods of use thereof for the treatment of viral diseases” (priority 2013, dated 2016)
